Source: article PMC7277649, “Amaryllidaceae Alkaloids of Belladine-Type from Narcissus pseudonarcissus cv. Carlton as New Selective Inhibitors of Butyrylcholinesterase” (Biomolecules, 2020)

How the values were obtained:
[1] = biological target: T1, hBuChE (Homo sapiens, UniProt P06276); assay: biochemical; format: biochemical; conditions: for IC50: mean ± SD of three independent measurements, each in triplicate; for SI for hBuChE: ratio hAChE IC50/hBuChE IC50; for inhibition at 100 µM: tested at 100 µM compound concentration, read-out: % inhibition hBuChE ± SD
T1 construct: 8.3 μL of either blood cell lysate or plasma dilutions; from tissue; host or cells: plasma
Experimental: (§1) The hAChE and hBuChE activities were determined using a modified method of Ellman, as described. Briefly, hAChE and hBuChE activities were determined using a modified method of Ellman, with acetylthiocholine iodide (ATChI) and butyrylthiocholine iodide (BuTChI) as substrates, respectively. Briefly, 8.3 μL of either blood cell lysate or plasma dilutions (at least six different concentrations), 283 μL of 5 mM 5,5′-dithiobis-2-nitrobenzoic acid (DTNB) and 8.3 μL of the sample dilution in dimethyl sulfoxide (DMSO) (40 mM, 10 mM, 4 mM, 1 mM, 0.4 mM, and 0 mM) were added to the semi-micro cuvette. The reaction was initiated by addition of 33.3 μL 10 mM substrate (ATChI or BuTChI). The final proportion of DTNB and substrate was […]. The increase of absorbance (ΔA) at 436 nm for AChE and 412 nm for BuChE was measured for 1 min at 37 °C using a spectrophotometer (Synergy^TM HT Multi-Detection Microplate Reader). Each measurement was repeated six times for every concentration of enzyme preparation.

[2] = biological target: T2, hAChE (Homo sapiens, UniProt P22303); assay: biochemical; conditions: for IC50: mean ± SD of three independent measurements, each in triplicate; for inhibition at 100 µM: tested at 100 µM compound concentration, read-out: %Inhibition hAChE ± SD
T2 construct: 8.3 μL of either blood cell lysate or plasma dilutions; from tissue; host or cells: blood cell lysate
T2 sequence (P22303 other isoform, or with tags, fused parts or gaps): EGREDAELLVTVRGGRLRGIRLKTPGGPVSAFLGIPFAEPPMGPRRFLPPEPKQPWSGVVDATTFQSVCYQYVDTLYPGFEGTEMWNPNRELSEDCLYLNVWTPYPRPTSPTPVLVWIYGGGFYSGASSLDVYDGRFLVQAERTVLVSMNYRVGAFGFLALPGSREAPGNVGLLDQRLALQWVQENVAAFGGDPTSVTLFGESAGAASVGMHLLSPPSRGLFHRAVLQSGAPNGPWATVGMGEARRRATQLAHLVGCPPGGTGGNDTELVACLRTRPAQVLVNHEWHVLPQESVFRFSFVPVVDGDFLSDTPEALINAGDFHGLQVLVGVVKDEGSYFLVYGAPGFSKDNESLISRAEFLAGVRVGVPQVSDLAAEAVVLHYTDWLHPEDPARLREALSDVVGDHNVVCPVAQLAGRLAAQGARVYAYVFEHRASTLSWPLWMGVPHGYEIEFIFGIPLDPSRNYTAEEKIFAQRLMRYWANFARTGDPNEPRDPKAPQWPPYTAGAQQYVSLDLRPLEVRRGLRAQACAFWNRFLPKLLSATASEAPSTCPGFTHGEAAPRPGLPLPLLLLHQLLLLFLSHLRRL
Experimental: as §1

[3] = biological target: T3, POP (EC 3.4.21.26) (Homo sapiens, UniProt P48147); assay: POP inhibition assay; format: biochemical
T3 sequence (P48147 1-710): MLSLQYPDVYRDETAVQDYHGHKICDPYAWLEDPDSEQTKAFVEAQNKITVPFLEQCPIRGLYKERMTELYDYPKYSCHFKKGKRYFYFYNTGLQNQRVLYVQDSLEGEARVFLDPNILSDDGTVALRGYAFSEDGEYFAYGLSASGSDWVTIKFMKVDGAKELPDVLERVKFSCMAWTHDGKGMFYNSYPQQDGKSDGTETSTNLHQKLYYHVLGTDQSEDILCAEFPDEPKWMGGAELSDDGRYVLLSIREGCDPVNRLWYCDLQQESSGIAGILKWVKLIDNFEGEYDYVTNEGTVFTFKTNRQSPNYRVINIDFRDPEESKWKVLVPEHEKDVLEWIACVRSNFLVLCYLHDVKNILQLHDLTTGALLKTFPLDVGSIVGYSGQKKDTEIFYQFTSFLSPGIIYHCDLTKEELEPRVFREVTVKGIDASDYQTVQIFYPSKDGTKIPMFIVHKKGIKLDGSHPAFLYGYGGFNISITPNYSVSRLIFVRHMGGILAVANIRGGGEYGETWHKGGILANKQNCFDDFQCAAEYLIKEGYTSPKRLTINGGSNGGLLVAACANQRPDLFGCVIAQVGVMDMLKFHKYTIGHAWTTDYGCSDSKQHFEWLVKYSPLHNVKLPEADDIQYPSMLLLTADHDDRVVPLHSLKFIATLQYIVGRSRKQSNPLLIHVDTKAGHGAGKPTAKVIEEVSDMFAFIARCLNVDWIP
Experimental: POP (EC 3.4.21.26) was dissolved in phosphate-buffered saline (PBS; 0.01 M Na/K phosphate buffer, pH 7.4, containing 137 mM NaCl and 2.7 mM KCl); the specific activity of the enzyme was 0.2 U/mL. The assay was performed in standard polystyrene 96-well microplates with a flat and clear bottom. Stock solutions of tested compounds were prepared in DMSO (10 mM). Dilutions (10^−3 to 10^−7 M) were prepared from the stock solution with deionized H2O; the control was performed with the same DMSO concentration. POP substrate, (Z)-Gly-Pro-p-nitroanilide, was dissolved in 50% 1,4-dioxane (5 mM). For each reaction, PBS (170 μL), tested compound (5 μL), and POP (5 μL) were incubated for 5 min at 37 °C. Then, substrate (20 μL) was added, and the microplate was incubated for 30 min at 37 °C. The formation of p-nitroanilide, directly proportional to the POP activity, was measured spectrophotometrically at 405 nm using a microplate ELISA reader (multimode microplate reader Synergy 2, BioTek Instruments, Winooski, VT, USA). […] All calculations were performed using GraphPad Prism software version 7.03 for Windows (GraphPad Software Inc., San Diego, California, USA).

Row | Compound | IC50 [1] [µM] | SI for hBuChE [1] | SI for hBuChE ([1]; listed as carltonine B (14)) | inhibition at 100 µM [1] [%] | IC50 [2] [µM] | inhibition at 100 µM [2] [%] | IC50 [3] [µM] | SI for hBuChE ([1]; listed as carltonine A (13))
1 | CN(CCc1ccc(O)cc1)Cc1cc2c(cc1-c1cccc3c1N(C)CC3)OCO2 [Carltonine B (14), carltonine B] | 0.031 ± 0.001 | >3226 | higher than 100 | 99 ± 1 | > 100 | 40 ± 1 | – | –
2 | c1ccc2c(c1)ncc1cc3c(cc12)OCO3 [Trispheridine (2), trisphaeridine] | > 100 | – | – | 13 ± 1 | > 100 | 6 ± 1 | – | –
3 | COc1ccc2c3c1O[C@H]1C=CC=C[C@@]31CCN(C)C2 [3,4-Anhydrogalanthamine (3), 3,4-anhydrogalanthamine] | > 100 | – | – | 28 ± 1 | > 100 | 4 | – | –
4 | COc1cc(C=O)c(-c2cccc3c2N(C)CC3)cc1OC [Lycosinine B (1), lycosinine B] | > 100 | – | – | 42 ± 1 | > 100 | 28 ± 1 | 258 ± 14 | –
5 | COc1cc(CN(CCc2ccc(O)cc2)Cc2cc(OC)c(OC)cc2-c2cccc3c2N(C)CC3)c(-c2cccc3c2N(C)CC3)cc1OC [Carltonine C (15), carltonine C] | 14.8 ± 1.1 | >7 | – | 78 ± 1 | > 100 | 9 | – | –
6 | COc1cc(CN(C)CCc2ccc(O)cc2)c(-c2cccc3c2N(C)CC3)cc1OC [Carltonine A (13), carltonine A] | 0.91 ± 0.02 | >110 | – | 98 ± 1 | > 100 | 2 | 143 ± 12 | higher than 100
